{"source": "patent US11246834B2", "about": "“Nutraceutical or pharmaceutical composition for use in the treatment of polycystic ovary syndrome or of diseases or disorders related thereto” (S&R FARMACEUTICI S.P.A., priority 2016, dated 2022)", "key": {"HEK293 cells [1]": {"system": "HEK293 cells", "assay": "MTT test of cellular metabolism under hydrogen peroxide oxidative stress", "assay_type": "cell-based, Human", "settings": "HEK293, 300 μM hydrogen peroxide; 40 μM myoinositol + 100 μM D-chiro inositol and/or 10 μM resveratrol", "experimental": "(§1) The measures have been performed in triplicate. Left (MTT) and (cell count). Human embryonic kidney HEK293 cells were grown in adherence in a growth medium consisting of DMEM supplemented with 10% fetal bovine serum (FBS) for 24 hours before being treated with 300 μM hydrogen peroxide in the presence of inositols (MI-D-chirol, 40 μM myoinositol and 100 μM D-chiro inositol, molar ratio MI/D-ChiroI=0.4) or resveratrol (10 μM) or in a combination of inositol and resveratrol. The effects of treatments on cellular metabolism were evaluated by the MTT test, while on the proliferation by cell count in Burker's chamber and all effects were compared with growing cells under controlled conditions (DMEN+10% FBS). The inositol concentrations were chosen based on the myo-inositol (MI) plasma concentration (26), and considering the molar ratio MI/D-Chirol=0.4 according to the invention, while the resveratrol concentration (10 μM) was chosen considering the plasma concentration expected after a treatment regime with resveratrol supported on hydroxide such as that from […]. […] Oxidative stress aggravates the pathological state of PCOS along with hormonal imbalance (27)."}, "HEK293 cells [2]": {"system": "HEK293 cells", "assay": "Cell count in Burker's chamber (proliferation) under hydrogen peroxide oxidative stress", "assay_type": "cell-based, Human", "settings": "HEK293, 300 μM hydrogen peroxide; 40 μM myoinositol + 100 μM D-chiro inositol and/or 10 μM resveratrol", "experimental": "as §1"}}, "data": [{"smiles": "Oc1ccc(C=Cc2cc(O)cc(O)c2)cc1", "note": "[resveratrol]", "values": [{"measurement": "effect on the anti-proliferative effect of oxidative stress, metabolic activity (MTT)", "setting": "HEK293 cells [1]", "value": "only partially counteracted"}, {"measurement": "effect on the anti-proliferative effect of oxidative stress, cell number (cell count)", "setting": "HEK293 cells [2]", "value": "only partially counteracted"}]}]}
